Test results: patent US11000033B2, “Ketone or oxime compound, and herbicide” (NISSAN CHEMICAL CORPORATION, priority 2014, dated 2021)

What was measured:
Assay type in all cases: in vivo
[1] = tested on: beet; test: Test Example 5: effect on crop by foliage application, plastic box (symbol f); details: 320 g/ha, 3 weeks after application
Procedure, shortened: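 Greenhouse culture at 25° C. to 30° C. followed spot-like sowing into sterilized diluvial soil, with seed covered by roughly 1.5 cm of soil.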

[2] = tested on: wheat; test: Test Example 4: effect on crop by soil treatment (symbol e); details: application herbicide amount 320 g/ha
Procedure, shortened: (§1)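 Seeds were sown in spots on sterilized diluvial soil in a plastic box and covered with about 1.5 cm of soil. Plants were then grown in a greenhouse at 25° C. to 30° C.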

[3] = tested on: Setaria viridis; test: Test Example 5: herbicidal effect by foliage application, plastic box (symbol G); details: 320 g/ha, 3 weeks after application
Procedure, shortened: (§2)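 Seeds were sown in sterilized diluvial soil, covered with about 1.5 cm of soil and grown 14 days in a greenhouse at 25° C. to 30° C. An emulsifiable formulation diluted in water to a set rate was sprayed over foliage, and injury was scored 3 weeks later.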

[4] = tested on: Apera spica-venti; test: Test Example 5: herbicidal effect by foliage application, plastic box (symbol L); details: 320 g/ha, 3 weeks after application
Procedure, shortened: as §2

[5] = tested on: beet; test: Test Example 4: effect on crop by soil treatment (symbol f); details: application herbicide amount 320 g/ha
Procedure, shortened: as §1

[6] = tested on: Echinochloa oryzacola Vasing.; test: Test Example 2: herbicidal activity, application during weed generation in submerged conditions (symbol A); details: Table 23; application herbicide amount 320 g/ha; grade 0-5 by criteria of Test Example 1
Procedure, shortened: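 Read-out: herbicidal effect on each species rated on a visual scale 3 weeks after treatment. Plants were raised together from seed in flooded alluvial soil (4 cm water) at 25° C. to 30° C. and treated at one to two leaves by water-surface application of diluted emulsion.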

[7] = tested on: Abutilon theophrasti; test: Test Example 4: herbicidal effect by soil treatment (symbol M); details: application herbicide amount 320 g/ha
Procedure, shortened: (§3)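 Seeds were sown in sterilized diluvial soil, covered with about 1.5 cm of soil, and the soil surface was sprayed with a water-diluted emulsion of the compound at a predetermined rate. Plants grew in a greenhouse at 25° C. to 30° C.; effects were scored visually 3 weeks after application.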

[8] = tested on: Echinochloa crus-galli var. crus-galli; test: Test Example 4: herbicidal effect by soil treatment (symbol H); details: application herbicide amount 320 g/ha
Procedure, shortened: as §3

[9] = tested on: rice; test: Test Example 4: effect on crop by soil treatment (symbol b); details: application herbicide amount 320 g/ha
Procedure, shortened: as §1

[10] = tested on: corn; test: Test Example 4: effect on crop by soil treatment (symbol c); details: application herbicide amount 320 g/ha
Procedure, shortened: as §1

[11] = tested on: Digitaria ciliaris; test: Test Example 5: herbicidal effect by foliage application, plastic box (symbol F); details: 320 g/ha, 3 weeks after application
Procedure, shortened: as §2

[12] = tested on: Lolium multiflorum Lam.; test: Test Example 4: herbicidal effect by soil treatment (symbol K); details: application herbicide amount 320 g/ha
Procedure, shortened: as §3

[13] = tested on: Alopecurus myosuroides; test: Test Example 5: herbicidal effect by foliage application, plastic box (symbol J); details: 320 g/ha, 3 weeks after application
Procedure, shortened: as §2

[14] = tested on: Cyperus difformis; test: Test Example 3: herbicidal effect by foliage application, Wagner pot (symbol E); details: application herbicide amount 320 g/ha
Procedure, shortened: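 Scoring took place 3 weeks after application, using fixed criteria. Plants had been raised from seed for 14 days at 25 to 30 °C in submerged alluvial soil before a diluted emulsion of the test compound was sprayed uniformly on the leaves.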

[15] = tested on: Galium spurium; test: Test Example 5: herbicidal effect by foliage application, plastic box (symbol Q); details: 320 g/ha, 3 weeks after application
Procedure, shortened: as §2

[16] = tested on: Digitaria ciliaris; test: Test Example 4: herbicidal effect by soil treatment (symbol F); details: application herbicide amount 320 g/ha
Procedure, shortened: as §3

[17] = tested on: directly sowed rice plant; test: Test Example 3: effect on crop by foliage application, Wagner pot (symbol b); details: application herbicide amount 320 g/ha
Procedure, shortened: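 Alluvial soil in a 1/10000-are Wagner pot was flooded to a water depth of 0.1–0.5 cm. Echinochloa crus-galli var. crus-galli, Leptochloa chinensis, Cyperus difformis and rice were sown into it and grown in a greenhouse at 25–30 °C.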

[18] = tested on: Veronica persica; test: Test Example 5: herbicidal effect by foliage application, plastic box (symbol R); details: 320 g/ha, 3 weeks after application
Procedure, shortened: as §2

SMILES	f: beet, effect on crop grade [1]	e (wheat) effect on crop grade [2]	G: Setaria viridis, herbicidal effect grade [3]	L: Apera spica-venti, herbicidal effect grade [4]	f (beet) effect on crop grade [5]	Herbicidal effect grade, A: Echinochloa oryzacola Vasing. [6]	M (Abutilon theophrasti) herbicidal effect grade [7]	H (Echinochloa crus-galli var. crus-galli) herbicidal effect grade [8]	b (directly sowed rice plant) effect on crop grade [9]	c (corn) effect on crop grade [10]	F: Digitaria ciliaris, herbicidal effect grade [11]	K (Lolium multiflorum Lam.) herbicidal effect grade [12]	J: Alopecurus myosuroides, herbicidal effect grade [13]	herbicidal effect on E, grade 0-5 [14]	Q: Galium spurium, herbicidal effect grade [15]	F (Digitaria ciliaris) herbicidal effect grade [16]	effect on crop b (directly sowed rice plant), grade 0-5 [17]	R: Veronica persica, herbicidal effect grade [18]
CC(CC1CC(O)=C(c2c(C)cc(C)cc2C)C1=O)=NOCC(F)(F)F (centres unmarked) [1-028]	0 (Herbicidal ratio of 5% or lower (almost no effect))	4 (Herbicidal ratio of 70% or higher and lower than 90%)	5 (Herbicidal ratio of 90% or more (almost completely withered))	5 (Herbicidal ratio of 90% or more (almost completely withered))	0 (Herbicidal ratio of 5% or lower (almost no effect))	5 (Herbicidal ratio of 90% or more (almost completely withered))	3 (Herbicidal ratio of 40% or higher and lower than 70%)	5 (Herbicidal ratio of 90% or more (almost completely withered))	5 (Herbicidal ratio of 90% or more (almost completely withered))	0 (Herbicidal ratio of 5% or lower (almost no effect))	5 (Herbicidal ratio of 90% or more (almost completely withered))	5 (Herbicidal ratio of 90% or more (almost completely withered))	5 (Herbicidal ratio of 90% or more (almost completely withered))	5 (Herbicidal ratio of 90% or more (almost completely withered))	3 (Herbicidal ratio of 40% or higher and lower than 70%)	5 (Herbicidal ratio of 90% or more (almost completely withered))	5 (Herbicidal ratio of 90% or more (almost completely withered))	–
CON=C(C)CC1CC(OC(=O)COc2ccccc2[N+](=O)[O-])=C(c2c(C)cc(C)cc2C)C1=O (centres unmarked) [1-071]	0 (Herbicidal ratio of 5% or lower (almost no effect))	4 (Herbicidal ratio of 70% or higher and lower than 90%)	5 (Herbicidal ratio of 90% or more (almost completely withered))	5 (Herbicidal ratio of 90% or more (almost completely withered))	–	5 (Herbicidal ratio of 90% or more (almost completely withered))	4 (Herbicidal ratio of 70% or higher and lower than 90%)	5 (Herbicidal ratio of 90% or more (almost completely withered))	5 (Herbicidal ratio of 90% or more (almost completely withered))	4 (Herbicidal ratio of 70% or higher and lower than 90%)	5 (Herbicidal ratio of 90% or more (almost completely withered))	5 (Herbicidal ratio of 90% or more (almost completely withered))	5 (Herbicidal ratio of 90% or more (almost completely withered))	5 (Herbicidal ratio of 90% or more (almost completely withered))	2 (Herbicidal ratio of 20% or higher and lower than 40%)	5 (Herbicidal ratio of 90% or more (almost completely withered))	5 (Herbicidal ratio of 90% or more (almost completely withered))	1 (Herbicidal ratio of 5% or higher and lower than 20%)
COCCON=C(C)CC1CC(O)=C(c2c(C)cc(C)cc2C)C1=O (centres unmarked) [1-041]	1 (Herbicidal ratio of 5% or higher and lower than 20%)	4 (Herbicidal ratio of 70% or higher and lower than 90%)	5 (Herbicidal ratio of 90% or more (almost completely withered))	5 (Herbicidal ratio of 90% or more (almost completely withered))	–	5 (Herbicidal ratio of 90% or more (almost completely withered))	3 (Herbicidal ratio of 40% or higher and lower than 70%)	5 (Herbicidal ratio of 90% or more (almost completely withered))	5 (Herbicidal ratio of 90% or more (almost completely withered))	4 (Herbicidal ratio of 70% or higher and lower than 90%)	5 (Herbicidal ratio of 90% or more (almost completely withered))	5 (Herbicidal ratio of 90% or more (almost completely withered))	5 (Herbicidal ratio of 90% or more (almost completely withered))	5 (Herbicidal ratio of 90% or more (almost completely withered))	3 (Herbicidal ratio of 40% or higher and lower than 70%)	5 (Herbicidal ratio of 90% or more (almost completely withered))	5 (Herbicidal ratio of 90% or more (almost completely withered))	3 (Herbicidal ratio of 40% or higher and lower than 70%)
CON=C(C)CC1CC(OC(=O)COc2ccc(Cl)cc2)=C(c2c(C)cc(C)cc2C)C1=O (centres unmarked) [1-044]	2 (Herbicidal ratio of 20% or higher and lower than 40%)	2 (Herbicidal ratio of 20% or higher and lower than 40%)	5 (Herbicidal ratio of 90% or more (almost completely withered))	5 (Herbicidal ratio of 90% or more (almost completely withered))	–	5 (Herbicidal ratio of 90% or more (almost completely withered))	5 (Herbicidal ratio of 90% or more (almost completely withered))	5 (Herbicidal ratio of 90% or more (almost completely withered))	5 (Herbicidal ratio of 90% or more (almost completely withered))	4 (Herbicidal ratio of 70% or higher and lower than 90%)	5 (Herbicidal ratio of 90% or more (almost completely withered))	5 (Herbicidal ratio of 90% or more (almost completely withered))	5 (Herbicidal ratio of 90% or more (almost completely withered))	5 (Herbicidal ratio of 90% or more (almost completely withered))	0 (Herbicidal ratio of 5% or lower (almost no effect))	5 (Herbicidal ratio of 90% or more (almost completely withered))	5 (Herbicidal ratio of 90% or more (almost completely withered))	0 (Herbicidal ratio of 5% or lower (almost no effect))
